According to US20050064005A1, “Active agent delivery systems including a miscible polymer blend, medical devices, and methods” (priority 2003, published 2005):

Experiment: In vitro elution kinetics of dual active agent release from coated stents in PBS at 37° C.
Format: physicochemical
Procedure: The in vitro elution kinetics of dual release was carried out in PBS and at 37° C. The stent was crimped on a stent delivery system and then expanded. After expansion, the physical aspects of the stent were noted prior to placing the stent inside a vial containing 3 milliliters (ml) of PBS. The vial was placed in a shaker at 37° C. and at certain time intervals; the whole solution (3 ml) was removed and replaced with fresh PBS. The amount of each active agent in each dual release system was determined by UV-Vis spectrophotometer using wavelengths of 250 nanometers (nm) for mycophenolic acid and 359 nm for sulfasalazine and solving simultaneous equations of active agent mixtures.

release kinetics of the active agent in the inner layer (stent system of FIG. 1 with TECOPLAST middle barrier layer (FIG. 3) versus without barrier (FIG. 2), PBS, 37° C.) | SMILES | release rate of sulfasalazine (from blends of TECOPLAST and TECOPHILIC polyurethanes as outer layer (FIG. 4))
– | O=C(O)c1cc(/N=N/c2ccc(S(=O)(=O)Nc3ccccn3)cc2)ccc1O [sulfasalazine] | increased as the percentage of TECOPHILIC polyurethane in the blend increased
slowed down significantly | COc1c(C)c2c(c(O)c1C/C=C(\C)CCC(=O)O)C(=O)OC2 [mycophenolic acid] | –
